The text below walks through data of US11111214B2 (priority 2013, dated 2021).

A word on the IC50: it is the concentration that gives 50% inhibition. What is called Ki is a dissociation constant, usually derived from enzyme kinetics or from competition with a known ligand. The term EC50 denotes the midpoint of the concentration-response curve. Low readings indicate a more potent agent, high ones a less potent agent.

The target of data set [1] is T1, recombinant human kappa (KOR) opioid receptor (Homo sapiens, UniProt P41145).
T1 construct: expressed in transfected cells; host or cells: CHO-K1 cell membranes
T1 sequence (P41145 whole entry): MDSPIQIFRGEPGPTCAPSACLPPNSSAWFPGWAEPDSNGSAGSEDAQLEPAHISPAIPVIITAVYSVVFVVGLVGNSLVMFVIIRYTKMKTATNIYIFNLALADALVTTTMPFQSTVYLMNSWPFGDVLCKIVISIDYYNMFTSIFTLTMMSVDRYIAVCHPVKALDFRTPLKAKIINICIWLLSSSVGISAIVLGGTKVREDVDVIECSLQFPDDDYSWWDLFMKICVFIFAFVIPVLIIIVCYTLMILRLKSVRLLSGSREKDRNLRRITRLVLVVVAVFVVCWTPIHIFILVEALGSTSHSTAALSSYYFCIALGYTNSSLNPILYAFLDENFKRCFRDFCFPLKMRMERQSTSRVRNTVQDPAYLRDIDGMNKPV
Kind of data set: biochemical. Type of data set: binding.

Data set [2] deals with T2, KOR (kappa opioid receptor) (Homo sapiens, UniProt P41145).
T2 construct: expressed in transfected cells; host or cells: CHO-K1 cells stably expressing KOR
T2 sequence (P41145 whole entry): as above
Description: cell-based.

Data set [3] in a line: in vitro. Conditions: rat, hepatocytes.
In data set [4] the target is T3, recombinant human mu (MOR) opioid receptor (Homo sapiens, UniProt P35372).
T3 construct: expressed in transfected cells; host or cells: CHO-K1 cell membranes
T3 sequence (P35372 whole entry): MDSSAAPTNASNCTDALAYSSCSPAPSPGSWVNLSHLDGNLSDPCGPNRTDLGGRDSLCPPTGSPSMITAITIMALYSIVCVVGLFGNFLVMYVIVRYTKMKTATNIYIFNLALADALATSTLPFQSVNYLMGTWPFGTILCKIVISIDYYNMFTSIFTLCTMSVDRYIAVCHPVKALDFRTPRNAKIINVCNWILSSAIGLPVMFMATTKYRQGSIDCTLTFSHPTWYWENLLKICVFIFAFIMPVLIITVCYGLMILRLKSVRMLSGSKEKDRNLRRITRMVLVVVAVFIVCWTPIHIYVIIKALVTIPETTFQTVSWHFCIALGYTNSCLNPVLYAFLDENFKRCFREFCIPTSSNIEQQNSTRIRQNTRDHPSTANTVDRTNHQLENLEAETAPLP
Kind of data set: biochemical. The class given is binding. The settings on record: read-out: Mu receptor % inhibition at single concentration, % inhibition @ 10 μM.

Data set [5] can be described thus: in vitro. Conditions: human, hepatocytes.
Assay in data set [6]: not given
This is another data set of the same source.

With `COCCOCCOCCOCCOCCOc1ccc([C@@H](CN2CCCC2)N(C)C(=O)Cc2ccc(Cl)c(Cl)c2)cc1.Cl` [compound 34, (S)—N-(1-(4-(2,5,8,11,14-pentaoxahexadecan-16-yloxy)phenyl)-2-(pyrrolidin-1-yl)ethyl)-2-(3,4-dichlorophenyl)-N-methylacetamide], the “In vitro Hepatocyte Clearance, Human % hep Blood flow” value came to 71%. Further, in data set [1], the IC50 was 107 nM and the inhibition constant (Ki) turned out to be 24.6 nM. The compound also displayed a concentration for a half-maximal effect (EC50) in data set [2] of 13 nM. Further, the CLhep predicted in data set [3] is 15.4 mL/min/kg. Also, the inhibition at 10 µM in data set [4] stood at 17.6%. Also, the CLhep predicted in data set [5] is 16.4 mL/min/kg. Besides, in data set [6], the “In vitro Hepatocyte Clearance, Rat % hep Blood flow” value was 26%.

For `COCCOCCOCCOCCOCCNc1ccc([C@@H](CN2CCCC2)N(C)C(=O)Cc2ccc(Cl)c(Cl)c2)cc1` [compound 35, (S)—N-(1-(4-(2,5,8,11,14-pentaoxahexadecan-16-ylamino)phenyl)-2-(pyrrolidin-1-yl)ethyl)-2-(3,4-dichlorophenyl)-N-methylacetamide], the “In vitro Hepatocyte Clearance, Human % hep Blood flow” value was 65%. Also, in data set [1], the 50% inhibitory concentration (IC50) was determined as 24.7 nM and the inhibition constant Ki came to 5.7 nM. For the same compound, the half-maximal effective concentration (EC50) in data set [2] is 2.59 nM. The CLhep predicted in data set [3] was 26.5 mL/min/kg. In addition, the inhibition at 10 µM in data set [4] was found to be 30.6%. Also, the CLhep predicted in data set [5] is 15 mL/min/kg. Further, the “In vitro Hepatocyte Clearance, Rat % hep Blood flow” value in data set [6] is on record as 44%.

On to `CN(C(=O)Cc1ccc(Cl)c(Cl)c1)[C@H](CN1CCCC1)c1ccc(OCCO)cc1.Cl` [compound 36, (S)-2-(3,4-dichlorophenyl)-N-(1-(4-(2-hydroxyethoxy)phenyl)-2-(pyrrolidin-1-yl)ethyl)-N-methylacetamide], for which the “In vitro Hepatocyte Clearance, Human % hep Blood flow” value is 71%. Besides, in data set [1], the IC50 amounted to 0.43 nM and the Ki was 0.1 nM. This compound also yielded an EC50 in data set [2] of 0.029 nM. Moreover, the CLhep predicted in data set [3] is 14.3 mL/min/kg. In data set [4], the inhibition at 10 µM amounted to 64.9%. Further, in data set [5], the CLhep predicted is 16.5 mL/min/kg. Further, the “In vitro Hepatocyte Clearance, Rat % hep Blood flow” value in data set [6] worked out at 24%.
